Values quoted from earlier work as cited in patent publication US9737644B2, “Medical device coatings” (TYRX, Inc., priority 2010, dated 2017).

Tested on: myofibroblast formation
Settings: animal studies, Ajmal et al. (2003)

For `O=S(=O)([O-])CCS.[Na+]` [Mesna, sodium 2-mercaptoethane sulfonate], the myofibroblast formation is listed as “diminish myofibroblast formation”.
